Measured values: PubChem BioAssay AID1259321 (Sanford-Burnham Center for Chemical Genomics, 2017)
Active and inactive are the calls of the source.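 How the source made its calls: active means half-maximal concentration for changing protein binding to DNA, from the fitted dose curve, below 10 micromolar; inactive means the rest.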

Target: Nuclear receptor subfamily 1 group D member 1 (Homo sapiens) (UniProt P20393)
Experiment: modulators of Rev-erb alpha DNA binding, dose response, biochemical, FITC-DNA, fluorescence polarization (AID 1259321)

Nuclear receptor subfamily 1 group D member 1 (Homo sapiens), sequence (P20393 whole entry, looked up): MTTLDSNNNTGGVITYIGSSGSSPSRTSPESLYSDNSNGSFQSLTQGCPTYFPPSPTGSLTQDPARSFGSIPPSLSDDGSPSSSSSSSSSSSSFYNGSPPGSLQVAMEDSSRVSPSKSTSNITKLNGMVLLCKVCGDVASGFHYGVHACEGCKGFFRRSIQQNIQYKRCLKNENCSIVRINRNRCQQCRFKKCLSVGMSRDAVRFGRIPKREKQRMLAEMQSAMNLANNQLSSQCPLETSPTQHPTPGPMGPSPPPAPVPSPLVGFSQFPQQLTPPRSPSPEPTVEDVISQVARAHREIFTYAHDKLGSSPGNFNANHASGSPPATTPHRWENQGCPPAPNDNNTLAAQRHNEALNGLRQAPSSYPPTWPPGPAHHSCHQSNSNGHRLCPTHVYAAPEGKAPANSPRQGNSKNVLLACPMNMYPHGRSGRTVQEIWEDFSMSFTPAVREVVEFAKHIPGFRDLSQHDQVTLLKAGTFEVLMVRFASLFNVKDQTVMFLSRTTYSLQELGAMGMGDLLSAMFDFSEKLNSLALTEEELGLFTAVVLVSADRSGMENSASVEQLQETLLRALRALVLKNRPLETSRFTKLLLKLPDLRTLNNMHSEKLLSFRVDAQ

Row | SMILES | IC50
1 | CCOC(=O)c1c(-c2ccccc2)csc1NC(=O)/C(C#N)=C/c1ccc(O)c(OC)c1 | 7.23 µM
2 | COc1ccc(S(=O)(=O)N2CCc3ccccc32)cc1C(=O)Nc1ccc(NC(C)=O)cc1 | 5.19 µM
3 | O=C(COC(=O)c1ccccc1SCC(=O)NC1CCCCC1)NC1CCCCC1 | 4.78 µM
4 | O=C(CSc1nnnn1-c1ccc2c(c1)OCCO2)c1cccc2c1OCCO2 | 2.98 µM
5 | COc1ccc2c(COC(=O)c3n[nH]c4ccccc34)cc(=O)oc2c1 | > 40 µM (inactive)
6 | CN1C(=O)c2cccc3c(N)ccc(c23)C1=O | inactive
7 | Cc1coc2cc3oc(=O)c(Cc4ccccc4)c(C)c3cc12 | inactive
8 | COc1cccc(-c2nc(CS(=O)(=O)CC(=O)NCc3ccc(Cl)cc3)c(C)o2)c1 | > 40 µM (inactive)
9 | COc1ccccc1C(=O)Nc1ccc2oc(-c3ccc(F)cc3)nc2c1 | 0.436 µM
10 | COc1ccc(Cl)cc1CC1(C)C(=O)Nc2ccc(-c3ccccc3OC)cc21 (stereo unspecified) | 3.44 µM
11 | Cc1cc(C)c2cc(C#N)c(SCC(=O)Nc3cc(C)on3)nc2c1 | 7.32 µM
12 | Nc1ccc2c3c(cccc13)C(=O)N(c1ccccc1)C2=O | inactive
13 | COCCn1c(=NC(=O)c2nc3ccccc3s2)sc2cc(S(C)(=O)=O)ccc21 | 4.6 µM
14 | Cc1ccc(Oc2nccc(-c3ccc(Cl)cc3)n2)cc1 | 7.31 µM
15 | O=c1c2ccccc2nc2sc3ccccc3n12 | > 40 µM (inactive)
16 | Cc1ccc(-c2csc3nc[nH]c(=S)c23)cc1C | 2.1 µM
17 | Cn1nnnc1-c1cc(Br)ccc1NC(=O)c1ccccc1 | inactive
18 | O=C(N=c1ccn(-c2nc3ccccc3nc2NS(=O)(=O)c2ccc(Cl)cc2)cc1)c1cccs1 | > 40 µM (inactive)
19 | CC1CCN(S(=O)(=O)c2ccc3nc(N4CCN(c5ccccc5)CC4)ccc3c2)CC1 | 8.29 µM
20 | Cc1[nH]c2ccccc2c1/C=C/c1cc[n+](C)cc1 | 4.41 µM
21 | COc1ccccc1C(=O)Nc1nc2ccccc2s1 | 5.23 µM
22 | Cc1cc(=O)oc2cc(OCC3CC(c4ccc(Cl)cc4)=NO3)ccc12 (stereo unspecified) | 8.95 µM

Row | SMILES | IC50
23 | COc1ccccc1CNC(=O)COC(=O)c1cccnc1SCC(=O)NCc1ccccc1OC | 5.05 µM
24 | CCCCCCc1cc2cc(C(=O)Nc3ccccc3)c(=O)oc2cc1O | > 40 µM (inactive)
25 | CCOC(=O)C1CCCN(c2ccc([N+](=O)[O-])c3nonc23)C1 (stereo unspecified) | > 40 µM (inactive)
26 | COc1ccc(-c2nc3c(c(=O)c4ccccc4n3C)c(=O)n2Cc2ccccc2)cc1 | 9.23 µM
27 | COc1ccccc1-c1nc(SCC(=O)Nc2cc(C)on2)c2c(=O)n(C)c(=O)n(C)c2n1 | 5.36 µM
28 | COc1ccc(Br)cc1-c1nc2c(c(=O)[nH]c(=O)n2Cc2ccccc2)n1C | inactive
29 | CN1C(=O)c2ccc(C(=O)Nc3ccc(Br)cn3)cc2C1=O | > 40 µM (inactive)
30 | Cc1[nH]nc2nc(SCC(=O)NC3CCCCC3)n(-c3ccc(Br)cc3)c(=N)c12 | 5.74 µM
31 | Cn1c(N)c(C(=O)CSc2nn(-c3ccc(F)cc3)c(=S)s2)c(=O)n(C)c1=O | > 40 µM (inactive)
32 | COc1ccc(-n2nc(C(=O)NCC(=O)Nc3cccc(Cl)c3)c3ccccc3c2=O)cc1 | inactive
33 | CC(C)n1cc(/C=C/c2cc[n+](C)cc2)c2ccccc21 | inactive
34 | O=C1/C(=C\c2cc(Cl)c(O)c(Cl)c2)SC(=S)N1Cc1ccccc1 | > 40 µM (inactive)
35 | Brc1ccc(-c2nn3c(-c4ccccc4)nnc3s2)cc1 | > 40 µM (inactive)
36 | O=C(COc1ccccc1)Nc1nc2cc3c(cc2s1)OCCO3 | 4.3 µM
37 | COc1ccccc1Oc1ccc2c(c1)C(=O)N(c1ccccc1)C2=O | 2.24 µM
38 | Cc1ccc(NC(=O)CSc2nc3ccccc3nc2N2CCOCC2)c(C)c1 | inactive
39 | O=c1oc2c3c4c(cc2c(C(F)(F)F)c1CCN1CCOCC1)CCCN4CCC3 | inactive
40 | CCOC(=O)c1c(NC(=O)CSc2nc3ccccc3s2)sc(C(C)=O)c1C | inactive
41 | COC(=O)Cn1cc(/C=C/c2cc[n+](C)cc2)c2ccccc21 | inactive
42 | O=C(OCCN1C(=O)c2cccc3c(N4CCOCC4)ccc(c23)C1=O)c1ccc(Cl)cc1Cl | > 40 µM (inactive)
43 | COc1cc(C(=O)Nc2nc(-c3cc(C)ccc3C)c(C)s2)ccc1OCC(=O)Nc1ccc(F)cc1 | inactive
44 | CCC(C)OC(=O)c1cc(C)nc2c(Br)cc(Br)cc12 (stereo unspecified) | 7.65 µM

Row | SMILES | IC50
45 | Cc1ccc2nc(N3CCN(c4cccc(C)c4C)CC3)c3nnnn3c2c1 | 7.32 µM
46 | Oc1ccc2ccc3cccc[n+]3c2c1 | > 40 µM (inactive)
47 | CCOc1ccc(CCNC(=O)c2cc(-c3ccccc3)c(N3CCOCC3)s2)cc1 | 4.5 µM
48 | O=C(CSc1nnc(-c2cccs2)n1-c1cccc(Cl)c1)c1cccc2c1OCCO2 | 2.25 µM
49 | COc1ccc(-c2cc(-c3ccc(C)cc3)nc(SCc3nnc(-c4ccccc4)o3)c2C#N)cc1OC | 8.78 µM
50 | COc1cc(OC)c(N(C)S(=O)(=O)c2cccc(C(=O)OCc3c(C)noc3C)c2)cc1Cl | 5.12 µM
51 | Cc1nc(SCC(=O)NC2CCCC2)c2oc3ccccc3c2n1 | 7.45 µM
52 | N#Cc1c(N)nc(SCC(=O)NCc2ccc3c(c2)OCO3)c(C#N)c1-c1cccs1 | 2.41 µM
53 | COc1ccc(-c2nc(NC(=O)c3ccc(OCC(=O)Nc4ccc(F)cc4)c(OC)c3)sc2C)cc1 | > 40 µM (inactive)
54 | Cc1cccc(C)c1NC(=O)COc1ccccc1C(=O)Nc1ccc(Br)cn1 | 4.34 µM
55 | C=CCN1C(=O)/C(=C2/Sc3ccc(OC)cc3N2C)SC1=NCc1ccccc1 | 6.32 µM
56 | CN(C)/C=C1\C=C2C(=O)c3ccccc3N2C1=O | 0.714 µM
57 | CSc1nnc2c3cc(F)ccc3n(Cc3ccccc3)c2n1 | 7.93 µM
58 | O=C(CSc1ncnc2c1oc1ccccc12)Nc1cccc(F)c1 | 2.51 µM
59 | COc1cccc(NC(=O)CSc2nc3ncc(Br)cc3[nH]2)c1 | 1.3 µM
60 | Clc1ccccc1-c1nn2c(-c3cc(-c4ccccc4)n[nH]3)nnc2s1 | > 40 µM (inactive)
61 | O=C(CSc1nnc(-c2cccs2)n1-c1ccccc1)N1CCCc2ccccc21 | > 40 µM (inactive)
62 | COc1cc(C(=O)Nc2nnc(-c3sccc3C)s2)cc(OC)c1OC | 4.24 µM
63 | COc1ccc(NC(=O)CSc2nc(-c3ccc(C)cc3)cc(C(F)(F)F)c2C#N)cc1 | 0.675 µM
64 | COc1ccc(-c2cc3c(=O)n(CC(=O)Nc4ccc(C(C)=O)cc4)ncn3n2)cc1 | inactive
65 | CN(C)c1ccc(C=C2SC(=S)NC2=O)cc1 | inactive
66 | O=C1c2cccc3c(N4CCCCC4)ccc(c23)C(=O)N1c1cccc(O)c1 | > 40 µM (inactive)

Row | SMILES | IC50
67 | Cc1cc2cc(C#N)c(SCC(=O)Nc3nonc3C)nc2cc1C | 1.33 µM
68 | Cc1cc(/C=C(/C#N)C(=O)Nc2ccc(Cl)cc2)c(C)n1-c1cccnc1 | 2.66 µM
69 | COCCCNc1nc2c(-c3ccc(C)cc3)nnn2c2ccccc12 | 5.07 µM
70 | COC(=O)Cn1c(C)c(/C=C/c2cc[n+](C)cc2)c2ccccc21 | 2.25 µM
71 | Cc1c(C#N)c(N)nc2c3c(sc12)NC(=O)CC3c1ccc(Cl)cc1 (stereo unspecified) | > 40 µM (inactive)
72 | COc1ccc(NC(=O)COC(=O)c2ccc3c(c2)OCO3)c(OC)c1 | > 40 µM (inactive)
73 | CCCCCOc1ccc(NC(=O)CSc2cccc3cccnc23)cc1 | 0.678 µM
74 | CCc1nnc(NC(=O)CSc2nc3cc4c(cc3cc2CC)OCCO4)s1 | 3.66 µM
75 | Cc1ccc(CNc2nc3ccccc3n3nnnc23)cc1 | inactive
76 | Cc1cc(C)c2nc(SCC(=O)Nc3ccccc3N3CCOCC3)c(C#N)cc2c1 | 6.99 µM
77 | Cc1ccc(-c2cc(C(F)F)nc3sc4c(=O)[nH]cnc4c23)cc1 | 6.05 µM
78 | O=C(CSc1nc2ccccc2nc1N1CCCCC1)N1CCN(S(=O)(=O)c2cc(Cl)ccc2Cl)CC1 | 4.85 µM
79 | O=C(c1cc2cc(Br)ccc2[nH]1)N1CCc2ccccc21 | 9.54 µM
80 | COc1ccc(CNC(=O)CCCn2c(=S)[nH]c3cc4c(cc3c2=O)OCO4)cc1 | 6.11 µM
81 | COc1ccccc1NC(=O)COC(=O)c1ccc2c(c1)OCCO2 | 1.01 µM
82 | Cc1ccc2c3c(c(SCC(=O)Nc4nonc4C)nc2c1)CCCC3 | > 40 µM (inactive)
83 | Cc1ccc(-c2nn3c(C)nnc3s2)cc1NC(=O)c1ccc(-c2ccc(Cl)cc2Cl)o1 | > 40 µM (inactive)
84 | CCCC(Oc1ccc(Br)cc1)c1nc2c3cc(OC)c(OC)cc3nc(=S)n2[nH]1 (stereo unspecified) | > 40 µM (inactive)
85 | N#Cc1c(N)nc(SCC(=O)C23CC4CC(CC(C4)C2)C3)c(C#N)c1-c1ccc(Cl)cc1 | > 40 µM (inactive)
86 | Cc1nn(C)c(C)c1N1C(=O)c2cccc3c(N)ccc(c23)C1=O | 1.13 µM
87 | CCOc1ccc2nc(SCC(=O)N3c4ccccc4Sc4ccccc43)c(C#N)cc2c1 | 6.88 µM
88 | CCOC(=O)/C(=C\C=C1/Sc2cc(OCC)c(OCC)cc2N1CC)C(C)=O | 5.55 µM

Row | SMILES | IC50
89 | COCCn1c(=NC(=O)c2ccco2)sc2cc(C(=O)OC)ccc21 | 4.87 µM
90 | CC(C)Nc1nc(-c2cccnc2)nc(-c2ccc(Cl)cc2)c1C#N | > 40 µM (inactive)
91 | CN(C)c1ccc(C=Cc2nccc3ccccc23)cc1 | > 40 µM (inactive)
92 | Cc1cc(C)c2nc(SCC(=O)NCC3CCCO3)c(C#N)cc2c1 (stereo unspecified) | inactive
93 | CN1CCS/C1=C/C=C1/SC(=S)N(Cc2ccccc2)C1=O | inactive
94 | Cc1ccc(C)c(-n2c(-c3ccc(Br)cc3)csc2=NC(=O)c2ccccc2F)c1 | inactive
95 | O=C1NC(=O)c2c(Br)c(Br)c(Br)c(Br)c21 | 1.48 µM
96 | Nc1cccc(N2C(=O)c3cccc4c(N)ccc(c34)C2=O)c1 | inactive
97 | Cc1cc(C)c(N=C2SCC(=O)N2Cc2ccco2)c(C)c1 | 7.22 µM
98 | O=C1c2cccc3c(O)ccc(c23)C(=O)N1c1ccc(Cl)cc1 | 2.42 µM
99 | CNC(=O)c1ccsc1NC(=O)c1sc2ccccc2c1Cl | inactive
100 | CCOc1ccc(NC(=O)CCSc2ccc3ccccc3n2)cc1 | 5.15 µM
101 | Cc1ccc(/C=C/c2ccc(N(C)C)cc2)[n+](C)c1 | 9.09 µM
102 | CCN1C(=O)/C(=C/C=C2/SCCN2C)SC1=S | inactive
103 | COc1ccc(-c2cc(-c3ccccc3)c(C#N)c(SCC(=O)Nc3ncc(C)s3)n2)cc1 | 3.58 µM
104 | O=C(c1cccs1)N1C(=O)c2cccc3cccc1c23 | 4.29 µM
105 | COC(=O)c1ccccc1NC(=O)c1cn(-c2ccc(C)c(C)c2)c(=O)c2ccccc12 | inactive
106 | Fc1cccc2sc(Nc3nc4ccccc4s3)nc12 | > 40 µM (inactive)
